Test results from the Deep4Chem optical property database.
Several values for one entry are separate records, joined by “and”; a condition that tells them apart may be missing. Identical values can stand only once. Each block holds one molecule with its values, some of them ahead of it.

Experiment: photoluminescence quantum yield (fraction); solvent given as SMILES

SMILES: c1ccc2c(c1)-c1ccccc1C21c2ccccc2N(c2ccc(-c3nc([C@]45CC6CC(C[C@@H](C6)C4)C5)nc([C@]45C[C@H]6C[C@@H](C[C@H](C6)C4)C5)n3)cc2)c2ccccc21
photoluminescence quantum yield (in CC1(C)c2ccccc2N(c2cccc(N3c4ccccc4C(C)(C)c4ccccc43)c2)c2ccccc21): 0.67 | photoluminescence quantum yield (in CC(C)(C)c1ccc(-n2c3ccc([Si](c4ccccc4)(c4ccccc4)c4ccccc4)cc3c3cc([Si](c4ccccc4)(c4ccccc4)c4ccccc4)ccc32)cc1): 0.76 | photoluminescence quantum yield (in Cc1cc(-n2c3ccccc3c3ccccc32)ccc1-c1ccc(-n2c3ccccc3c3ccccc32)cc1C): 0.36 | photoluminescence quantum yield (in O=P(c1ccccc1)(c1ccccc1)c1ccc([Si](c2ccccc2)(c2ccccc2)c2ccccc2)cc1): 0.84

photoluminescence quantum yield (in CCO): 0.842
SMILES: Cc1c(COC(=O)c2ccc(I)cc2)n2c(OCC(=O)c3ccc(I)cc3)c(C)c(=O)n2c1=O

photoluminescence quantum yield (in CC#N): 0.27 | photoluminescence quantum yield (in CO): 0.27
SMILES: c1ccc(-c2nc(-c3ccccc3)c(-c3ccccc3)[nH]2)cc1

photoluminescence quantum yield (in CC#N): 0.08
SMILES: CC1(C)[C@@H]2[C@@H]1[C@]1(c3ccccc3)N=NC2(c2ccccc2)C2C3C=CC(C3)C21 (some centres not stated)

photoluminescence quantum yield (in C1CCOC1): 0.34 | photoluminescence quantum yield (in ClCCl): 0.39
SMILES: CCCCCCCc1cc2c(o1)=CC1=C3c4cc5oc(CCCCCCC)cc5n4[B-](F)(F)[n+]4nnn(c43)[B-](F)(F)[N+]=21

photoluminescence quantum yield (in ClCCl): 0.83 | photoluminescence quantum yield (in c1cc(-n2c3ccccc3c3ccccc32)cc(-n2c3ccccc3c3ccccc32)c1): 0.9
SMILES: O=S1(=O)c2ccccc2C2(c3cc(-c4ccc(N(c5ccccc5)c5ccccc5)cc4)ccc3-c3ccc(-c4ccc(N(c5ccccc5)c5ccccc5)cc4)cc32)c2ccccc21

photoluminescence quantum yield (in C1CCCCC1): 0.93
SMILES: c1cc2c3c(c1)OCCCCCCOc1cccc(c1-c1c4ccccc4c-3c3ccccc13)OCCCCCCO2

SMILES: N#Cc1c(-n2c3ccccc3c3ccccc32)c(-n2c3ccccc3c3ccccc32)c(-n2c3ccccc3c3ccccc32)c(-n2c3ccccc3c3ccccc32)c1-n1c2ccccc2c2ccccc21
photoluminescence quantum yield (in Cc1ccccc1): 0.75 and 0.7 | photoluminescence quantum yield (in c1cc(-c2cccc(-n3c4ccccc4c4ccccc43)c2)cc(-n2c3ccccc3c3ccccc32)c1): 0.65

photoluminescence quantum yield (in C1CCCCC1): 1
SMILES: CCCC1(CCC)c2cc(-c3ccccc3)ccc2-c2ccc(-c3ccc4c(c3)C(CCC)(CCC)c3cc(-c5ccccc5)ccc3-4)cc21

photoluminescence quantum yield (in ClCCl): 0.38
SMILES: CCCCC(CC)Cn1c2cc(C#N)ccc2c2ccc(C#Cc3ccc4ccc5c(C#Cc6ccc7c8ccc(C#N)cc8n(CC(CC)CCCC)c7c6)ccc6ccc3c4c65)cc21 (configuration not stated)

photoluminescence quantum yield (in CC1CCCO1): 0.83
SMILES: O=S1(=O)c2ccc(-c3ccc4c(c3)c3ccccc3n4-c3ccccc3)cc2C2(c3cc(-c4ccc5c(c4)c4ccccc4n5-c4ccccc4)ccc31)c1cc(-c3ccc4c(c3)c3ccccc3n4-c3ccccc3)ccc1S(=O)(=O)c1ccc(-c3ccc4c(c3)c3ccccc3n4-c3ccccc3)cc12

photoluminescence quantum yield (in ClCCl): 0.33
SMILES: COc1ccc2cc(/C=C/C3=C4CCc5ccccc5C4=[O+][B-](F)(F)O3)ccc2c1

photoluminescence quantum yield (in CC#N): 0.034
SMILES: COC(=O)C12N=N[C@](C(=O)OC)(C3C4C=CC(C4)C31)[C@@H]1C[C@H]12 (some centres not stated)

photoluminescence quantum yield (in C1COCCO1): 0.04 | photoluminescence quantum yield (in CC#N): 0.05 | photoluminescence quantum yield (in CCCCCCC): 0.02 | photoluminescence quantum yield (in CCO): 0.01
SMILES: c1ccc2nc3c(nc2c1)[nH]c1ccccc13

photoluminescence quantum yield (in ClCCl): 0.15
SMILES: CC1=C(C#Cc2ccc([Si](c3ccccc3)(c3ccccc3)c3ccccc3)cc2)C(C)=[N+]2C1=C(c1ccccc1)c1c(C)c(C#Cc3ccc([Si](c4ccccc4)(c4ccccc4)c4ccccc4)cc3)c(C)n1[B-]2(F)F

photoluminescence quantum yield (in CC#N): 0.017
SMILES: N#CC(/N=C/c1ccccc1O)=C(C#N)/N=C/c1ccccc1O

photoluminescence quantum yield (in ClCCl): 0.51
SMILES: CCCCCc1ccc(-c2ccc(C#Cc3cc(C#Cc4ccc(-c5ccc(CCCCC)cc5)cc4)c4ccc5c(C(=O)c6ccccc6)cc(C#Cc6ccc(-c7ccc(CCCCC)cc7)cc6)c6ccc3c4c65)cc2)cc1

photoluminescence quantum yield (in CC#N): 0.645 | photoluminescence quantum yield (in CCCCCC): 0.51 | photoluminescence quantum yield (in CO): 0.214 | photoluminescence quantum yield (in ClC(Cl)Cl): 0.627
SMILES: c1cc2ccc3cccc4c(-c5cc(-c6nccs6)nc(-c6nccs6)c5)cc(c1)c2c34

photoluminescence quantum yield (in CC#N): 0.19
SMILES: C=CC(=O)Oc1ccc2cc(C=C)c(=O)oc2c1

photoluminescence quantum yield (in C1CCOC1): 0.3 | photoluminescence quantum yield (in CN1CCCC1=O): 0.2 | photoluminescence quantum yield (in CN(C)C=O): 0.01
SMILES: O=C1c2ccc3c4c(Oc5ccccc5)cc5c6c(ccc(c7c(Oc8ccccc8)cc(c2c37)C(=O)N1c1ccc(O)cc1)c64)C(=O)N(c1ccc(O)cc1)C5=O

photoluminescence quantum yield (in ClCCl): 0
SMILES: Cc1ccc(/C=C/c2nc(-c3cccc([N+](=O)[O-])c3)[nH]c2/C=C/c2ccc(C)cc2)cc1

SMILES: CCCC1=Cc2nc1ccc1[nH]c(cc1CCC)c1nc(c(OCc3ccc(C(=O)O)cc3)cc3[nH]c2cc3CCC)C(CCC)=C1
photoluminescence quantum yield (in Cc1ccccc1): 0.21
